The values below come from article PMC8234864, “Early Effects of the Soluble Amyloid β25-35 Peptide in Rat Cortical Neurons: Modulation of Signal Transduction Mediated by Adenosine and Group I Metabotropic Glutamate Receptors” (International Journal of Molecular Sciences, 2021).

One assay concerns the target T1, A2AR (Rattus norvegicus, UniProt P30543).
T1 construct: endogenous in cells; host or cells: rat primary cortical neurons (intact)
Description: A2AR-mediated AC stimulation (CGS 21680). Conditions: 25 µM, 24 h; 1 µM CGS 21680. The format is cell-based. How it is done:
AC activity was determined as previously reported by Murphy with minor modifications. Briefly, control or treated cells were pre-incubated in serum-free DMEM buffered with 20 mM HEPES, pH 7.4, supplemented with 100 µM Ro 20-1724 and 2 U/mL ADA, for 10 min at 37 °C. AC activity was stimulated using specific ligands for 15 min at 37 °C in a final volume of 250 µL. The reaction was stopped by adding 500 µL 0.1 M HCl in absolute ethanol. Once centrifuged at 12,000× g for 10 min, supernatants were evaporated in speed-vac and resuspended in 150 µL assay buffer (50 mM Tris-HCl, 4 mM EDTA). Fifty microliters of the sample were used to determine cAMP accumulation using protein kinase A as a cAMP binding protein and [^3H]cAMP as radioligand. A cAMP standard curve (0–16 pmol) was prepared in the same buffer. Incubation was stopped by rapid filtration through Whatman GF/B filters.

Assay [1] has as its system A2AR (ADORA2A) gene expression. Description: A2AR gene expression by real-time PCR. The format is cell-based, rat. The note with it: 25 µM, 24 or 48 h. The protocol:
(§1) Total RNA was extracted using an ABI 6100 Nucleic Acid PrepStation according to the manufacturer’s protocol (Applied Biosystems Inc., Foster City, CA, USA). Total RNA from cells was isolated and stored at −80 °C. The quality of isolated RNA was estimated by the ratio A260/A280 and was in the range of 1.9–2.1. RNA integrity was evaluated by agarose gel electrophoresis according to MIQE guidelines using the “bleach gel” method. RNA concentrations were determined from the A260. One microgram of total RNA was reverse transcribed using Applied Biosystems High-Capacity cDNA Archive Kit.
(§2) To assess relative gene expression in neurons, quantitative real-time RT-PCR analysis was performed with an Applied Biosystems Prism 7500 Fast Sequence Detection System using TaqMan® universal PCR master mix according to the manufacturer’s specifications. […] Levels of RNA expression were determined using the 7500 Fast System SDS software version 1.3.1 (Applied Biosystems) according to the 2^−ΔΔCt method. […] The results from three independent repeat assays, performed in different plates each using different cDNA’s from the cultures analyzed, were averaged to produce a single mean quantity value for each mRNA.

The next assay has as its system Caspase 3. Description: Caspase 3 activity assay. The format is cell-based, rat. Conditions: 25 µM Aβ25-35 exposure. How it is done: A commercial kit (Molecular Probes, Barcelona, Spain) was used to determine Caspase 3 activity following the manufacturer’s instructions. Briefly, cortical neurons growth in 24-well plates were exposed to Aβ25-35 or maintained under control conditions. Cells were lysed and lysates centrifuged to clear cell debris. Then, 50 µL of test buffer containing Z-DEVD-Rhodamine 110, DTT, EDTA, PIPES, and CHAPS was added to the supernatants obtained in the proportions indicated by the manufacturer. After 30 min of incubation at room temperature, the […] of each sample was measured on a plate reader (excitation/emission 496/520 nm).

A further assay deals with CREM gene expression. The assay is described as follows: CREM gene expression by real-time PCR. The format is cell-based, rat. Conditions: 25 µM, 24 or 48 h. How it is done:
as §1, §2
Background: Real-time PCR tracks product formation cycle by cycle.

For assay [2], the system named is A2BR (ADORA2B) gene expression. The assay is described as follows: A2BR gene expression by real-time PCR. The format is cell-based, rat. Conditions: 25 µM, 24 or 48 h. How it is done: as §1, §2
In another assay the test system is PLCβ1 gene expression. Description: PLCβ1 gene expression by real-time RT-PCR. The format is cell-based, rat. The note with it: 25 µM. How it is done:
as §1, §2

Where no end group is shown, it is not given here.

T1 sequence (P30543 whole entry): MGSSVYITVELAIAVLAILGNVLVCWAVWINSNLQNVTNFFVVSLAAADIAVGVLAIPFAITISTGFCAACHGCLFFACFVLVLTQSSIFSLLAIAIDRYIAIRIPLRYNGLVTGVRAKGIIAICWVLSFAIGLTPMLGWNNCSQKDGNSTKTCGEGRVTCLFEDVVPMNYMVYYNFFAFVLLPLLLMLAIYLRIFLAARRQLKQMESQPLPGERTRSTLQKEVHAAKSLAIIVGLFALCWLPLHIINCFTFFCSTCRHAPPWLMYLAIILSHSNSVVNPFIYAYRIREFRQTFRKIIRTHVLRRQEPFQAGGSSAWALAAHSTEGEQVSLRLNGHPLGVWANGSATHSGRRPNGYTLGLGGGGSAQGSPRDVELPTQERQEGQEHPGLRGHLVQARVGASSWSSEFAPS

In the case of GSNKGAIIGLM [Aβ25-35], the “A2AR-mediated stimulation of AC activity” value at A2AR is “did not alter”. The A2AR gene expression entry in assay [1] is given as “significantly increased”. In the assay on Caspase 3, the “caspase 3 activity” value is “increase”. In addition, the CREM gene expression result in the assay on CREM gene expression was “decrease”. Moreover, in assay [2], the A2BR gene expression result is “significantly increased”. Besides, the “PLCβ1 gene expression decrease over control value” amounted to 28% in the assay on PLCβ1 gene expression (24 h) and 33% in the assay on PLCβ1 gene expression (48 h).
